In US10167297B2, “Substituted pyridine compounds having herbicidal activity” (BASF SE, priority 2014, dated 2019) one finds Herbicidal activity, pest or weed control and plant injury data, which are given here for eight compounds.

Assay type in all cases: in vivo
Assay [1] has as its system Amaranthus retroflexus. Nature of the assay: greenhouse post-emergence herbicidal activity (use examples). The settings on record: AMARE, scale 0 to 100. The text has this:
(§1) The seeds of the test plants were sown separately for each species. For the pre-emergence treatment, the active ingredients, which had been suspended or emulsified in water, were applied directly after sowing by means of finely distributing nozzles. The containers were irrigated gently to promote germination and growth and subsequently covered with transparent plastic hoods until the plants had rooted. This cover caused uniform germination of the test plants, unless this had been impaired by the active ingredients. For the post-emergence treatment, the test plants were first grown to a height of 3 to 15 cm, depending on the plant habit, and only then treated with the active ingredients which had been suspended or emulsified in water. For this purpose, the test plants were either sown directly and grown in the same containers, or they were first grown separately as seedlings and transplanted into the test containers a few days prior to treatment. Depending on the species, the plants were kept at 10-25° C. or 20-35° C., respectively. The test period extended over 2 to 4 weeks. During this time, the plants were tended, and their response to the individual treatments was evaluated. Evaluation was carried out using a scale from 0 to 100. 100 means no emergence of the plants, or complete destruction of at least the aerial moieties, and 0 means no damage, or normal course of growth. A good herbicidal activity is given at values of at least 70 and a very good herbicidal activity is given at values of at least 85. The plants used in the greenhouse experiments were of the following species: [table]

Assay [2] concerns Chenopodium album. Described as above. The following applies: CHEAL, scale 0 to 100.
From the text: as §1

In assay [3] the test system is Echinocloa crus-galli. The description is as above. The following applies: Echinochloa crus-galli, ECHCG, scale 0 to 100; for pest or weed control at 250 g/ha: 0.25 kg/ha; for pest or weed control at 125 g/ha: 0.125 kg/ha; for pest or weed control at 31 g/ha: 0.031 kg/ha.
From the text: as §1

The subject of assay [4] is Zea mays. Nature of the assay: greenhouse post-emergence herbicidal activity on crop plant corn (use examples). The settings on record: ZEAMX (corn, crop plant), scale 0 to 100; for plant injury at 250 g/ha: 0.25 kg/ha; for plant injury at 125 g/ha: 0.125 kg/ha; for plant injury at 31 g/ha: 0.031 kg/ha.
From the text: as §1

Assay [5] concerns Setaria viridis. Nature of the assay: greenhouse post-emergence herbicidal activity (use examples). The settings on record: SETVI, scale 0 to 100.
From the text: as §1

As for `O=C1CCCN1c1c(Cl)ccc(C2=C(O)c3ncccc3CS2(=O)=O)c1Cl` [Compound I-1, 1-[2,6-dichloro-3-(8-hydroxy-6,6-dioxo-5H-thiopyrano[4,3-b]pyridin-7-yl)phenyl]pyrrolidin-2-one], the Herbicidal activity in assay [1] (0.25 kg/ha) and in assay [2] (0.25 kg/ha) was 100 in each case. Also, in assay [3], the pest or weed control (usually how far the test organism was held down) at 250 g/ha worked out at 100%. In addition, the plant injury (usually the degree to which the test organism was suppressed or injured, in per cent) at 250 g/ha in assay [4] is 0%.

In assay [3] (0.060 kg/ha), `CC(=O)N(C)c1c(Cl)ccc(C2=C(O)c3ncccc3C(C)(C)S2(=O)=O)c1Cl` [Compound I-6, N-[2,6-dichloro-3-(8-hydroxy-5,5-dimethyl-6,6-dioxo-thiopyrano[4,3-b]pyridin-7-yl)phenyl]-N-methyl-acetamide] yielded a pest or weed control at 60 g/ha of 90%. The Herbicidal activity in assay [5] (0.060 kg/ha) turned out to be 90. In assay [4] (0.060 kg/ha), this compound displayed a plant injury at 60 g/ha of 30%.

With `CC(=O)N(C)c1c(Cl)ccc(C2=C(OC(=O)C(C)(C)C)c3ncccc3CS2(=O)=O)c1Cl` [Compound I-7, [7-[3-[acetyl(methyl)amino]-2,4-dichloro-phenyl]-6,6-dioxo-5H-thiopyrano[4,3-b]pyridin-8-yl] 2,2-dimethylpropanoate], the results for the Herbicidal activity in assay [1] (0.25 kg/ha) and in assay [2] (0.25 kg/ha) were 95 and 100, respectively. The compound further showed a pest or weed control at 250 g/ha in assay [3] of 98%. Besides, in assay [4], the plant injury at 250 g/ha came to 20%.

In the case of `CC(=O)N(C)c1c(Cl)ccc(C2=C(OC(=O)C(C)(C)C)c3ncccc3C(C)(C)S2(=O)=O)c1Cl` [Compound I-8, [7-[3-[acetyl(methyl)amino]-2,4-dichloro-phenyl]-5,5-dimethyl-6,6-dioxo-thiopyrano[4,3-b]pyridin-8-yl] 2,2-dimethylpropanoate], the values for the Herbicidal activity in assay [1] (0.125 kg/ha) and in assay [2] (0.125 kg/ha) were 98 and 100, respectively. The pest or weed control at 125 g/ha in assay [3] was 98%. In addition, the plant injury at 125 g/ha in assay [4] was determined as 30%.

Regarding `CC(=O)N(C)c1c(Cl)ccc(C2=C(O)c3ncc(F)cc3CS2(=O)=O)c1Cl` [Compound I-11, N-[2,6-dichloro-3-(3-fluoro-8-hydroxy-6,6-dioxo-5H-thiopyrano[4,3-b]pyridin-7-yl)phenyl]-N-methyl-acetamide], the Herbicidal activity in assay [2] (0.031 kg/ha) and in assay [5] (0.031 kg/ha) was 90 throughout. This compound also gave a pest or weed control at 31 g/ha in assay [3] of 90%. The compound further came in with a plant injury at 31 g/ha in assay [4] of 15%.

Turning to `CC(=O)N(C)c1c(Cl)ccc(C2=C(OC(=O)C(C)(C)C)c3ncc(F)cc3CS2(=O)=O)c1Cl` [Compound I-12, [7-[3-[acetyl(methyl)amino]-2,4-dichloro-phenyl]-3-fluoro-6,6-dioxo-5H-thiopyrano[4,3-b]pyridin-8-yl] 2,2-dimethylpropanoate], the Herbicidal activity in assay [2] (0.031 kg/ha) is 90; in assay [5] (0.031 kg/ha), 75. In assay [3], this compound gave a pest or weed control at 31 g/ha of 85%. In assay [4], this compound gave a plant injury at 31 g/ha of 15%.

As to `CC(=O)N(C)c1c(Cl)ccc(C2=C(OC(=O)C(C)(C)C)c3ncc(F)cc3C(C)(C)S2(=O)=O)c1Cl` [Compound I-13, [7-[3-[acetyl(methyl)amino]-2,4-dichloro-phenyl]-3-fluoro-5,5-dimethyl-6,6-dioxo-thiopyrano[4,3-b]pyridin-8-yl] 2,2-dimethylpropanoate], the Herbicidal activity is given as 90 in assay [1] (0.125 kg/ha) and 85 in assay [5] (0.125 kg/ha). The pest or weed control at 125 g/ha in assay [3] is 95%. The same compound registered a plant injury at 125 g/ha in assay [4] of 15%.

Take `CC(=O)N(C)c1c(Cl)ccc(C2=C(O)c3ncc(F)cc3C(C)(C)S2(=O)=O)c1Cl` [Compound I-14, N-[2,6-dichloro-3-(3-fluoro-8-hydroxy-5,5-dimethyl-6,6-dioxo-thiopyrano[4,3-b]pyridin-7-yl)phenyl]-N-methyl-acetamide]: the Herbicidal activity in assay [1] (0.125 kg/ha) turned out to be 98; in assay [5] (0.125 kg/ha), 100. For the same compound, in assay [3], the pest or weed control at 125 g/ha is 98%. Also, the plant injury at 125 g/ha in assay [4] worked out at 30%.
